# Measurements published in patent publication EP0420798B1, “Antimicrobial compositions” (Ciba Vision AG, Hettlingen, priority 1989, dated 1991).
# Tests used:
# [1] = 5-day ocular tolerance test in animals; type: in vivo, Kaninchen
# Source text: Die überraschenderweise verbesserte Augenverträglichkeit der Verbindungen der Formel I im Vergleich zu Benzalkoniumchlorid wird z.B. aus den Ergebnissen der im folgenden beschriebenen 5-Tage-Verträglichkeitsprüfung beim Tier deutlich: Verglichen wurden jeweils 0,01 %-ige Lösungen von Benzoxoniumchlorid und Benzalkoniumchlorid. Diese Lösungen wurden 5 Tage lang fünfmal (in 90 Minuten-Invervallen) in den Konjunktivalsack von Kaninchen eingetropft. Am Ende des Versuchs wurden die behandelten Augen auf Klinische Befunde, wie z.B. Rötungen der Konjunktiva, Korneatrübungen, Sekretion und Bindehautschwellungen, untersucht. Dabei ergaben sich die folgenden Resultate: Brenzoxoniumchlorid (≙ Verbindung der Formel I), 0,01 % 5 Instillationen/Tier/Tag im Abstand von jeweils 90 min keine Befunde Benzalkoniumchlorid (≙ Vergleichsverbindung), 0,01 % 5 Instillationen/Tier/Tag im Abstand von jeweils 90 min 4 Befunde
# St. aureus = experiment: Preservative challenge test; type: cell-based; parameters: key: k. W.: k.W.: kein Wachstum; conditions: 0,1 mg/ml, pH 6, inoculum 1,4•10^6/ml
# Source text: (§1) Die konservierende Wirkung der Verbindungen der Formel I wird z.B. aus den Ergebnissen des folgenden Konservierungsmittelbelastungstests deutlich: […]
# Ps. aeruginosa = experiment: Preservative challenge test; type: cell-based; parameters: key: k. W.: k.W.: kein Wachstum; conditions: 0,1 mg/ml, pH 6, inoculum 1,1•10^6/ml
# Source text: as §1
# C. albicans = experiment: Preservative challenge test; type: cell-based; parameters: key to Reduktion des Wachstums: k. W.: k.W.: kein Wachstum; conditions: 0,1 mg/ml, pH 6, inoculum 9,9•10^5/ml
# Source text: as §1
# E. coli = experiment: Preservative challenge test; type: cell-based; parameters: key to Reduktion des Wachstums: k. W.: k.W.: kein Wachstum; conditions: 0,1 mg/ml, pH 6, inoculum 1,5•10^6/ml
# Source text: as §1
# [2] = 4-week ocular local tolerance study in rabbits; type: in vivo, pigmentierte Himalayakaninchen; conditions: 0,01 % solution, 50 µl ten times daily at 45 min intervals into conjunctival sac of right eye for 4 weeks; histopathology at end; animals with conjunctival lesions and acanthosis/hyperkeratosis at margin of lower right eyelid
# Source text: Die bessere Augenverträglichkeit der Verbindungen der Formel I im Vergleich zu Benzalkoniumchlorid wird z.B. auch aus den Ergebnissen der im folgenden beschriebenen 4 Wochen dauernden okularen, lokalen Verträglichkeitsstudie beim Kaninchen deutlich: Verglichen wurden jeweils 0,01 %-ige Lösungen von N-Benzyl-N-(gemischtes C₈-C₁₈-Alkyl)-N,N-bis-(2-hydroxyethyl)-ammoniumchlorid und Benzalkoniumchlorid. Als Versuchstiere dienten pigmentierte Himalayakaninchen. Diesen wurden 4 Wochen lang zehnmal täglich (in 45 Minuten-Intervallen) jeweils 50 µl der entsprechenden Lösung in den Konjunktivalsack des rechten Auges verabreicht. Zur Kontrolle wurde in das linke Auge jeweils eine Vergleichslösung, die kein Konservierungsmittel enthielt, eingetropft. Die Tiere wurden am ersten und am fünften Behandlungstag ophthalmologisch untersucht. […] Dagegen wurden bei 4 von 6 mit Benzalkoniumchloridlösung behandelten Tieren Läsionen in der Konjunktiva und eine Akanthose und Hyperkeratose am Rand des unteren rechten Augenlids beobachtet. Die Benzalkoniumchloridlösung verursachte demnach Aenderungen am konjunktivalen Epithel, welche bei der erfindungsgemässen Lösung nicht auftraten. Damit ist überzeugend nachgewiesen, dass die Verbindungen der Formel I eine im Vergleich zu Benzalkoniumchlorid überraschend verbesserte Langzeitverträglichkeit im Auge besitzen.
Molecule,"Klinische Befunde ([1]; 0,01 % solution, 5 instillations/animal/day at 90 min intervals into the conjunctival sac for 5 days, eyes examined at end of test (conjunctival redness, corneal opacity, secretion, conjunctival swelling))",Reduktion des Wachstums (St. aureus; contact time 10 min),Reduktion des Wachstums (St. aureus; contact time 6 h),Reduktion des Wachstums (St. aureus; contact time 24 h),Reduktion des Wachstums (Ps. aeruginosa; contact time 10 min),Reduktion des Wachstums (Ps. aeruginosa; contact time 6 h),Reduktion des Wachstums (Ps. aeruginosa; contact time 24 h),Reduktion des Wachstums (C. albicans; contact time 6 h),Reduktion des Wachstums (C. albicans; contact time 24 h),"killing at 100 µg/mL (C. albicans; Candida albicans, 10 min, contact time 10 min, read-out: Reduktion des Wachstums) [%]",Reduktion des Wachstums (E. coli; contact time 6 h),Reduktion des Wachstums (E. coli; contact time 24 h),"killing at 100 µg/mL (E. coli; Escherichia coli, 10 min, contact time 10 min, read-out: Reduktion des Wachstums) [%]",Klinische Befunde ([1]; in vivo) [Befunde],okulare Läsionen [2]
"CCCCCCCCCCCC[N+](CCO)(CCO)Cc1ccccc1.[Cl-] [Benzoxoniumchlorid, N-Benzyl-N-(n-dodecyl)-N,N-bis-(2-hydroxyethyl)-ammoniumchlorid]",keine Befunde,k. W.,k. W.,k. W.,k. W.,k. W.,k. W.,k. W.,k. W.,100,k. W.,k. W.,100,–,–
"N-Benzyl-N-(C₈-C₁₈-alkyl)-N,N-dimethylammoniumchlorid [Benzalkoniumchlorid, reference compound]",–,–,–,–,–,–,–,–,–,–,–,–,–,4,4 von 6
"N-Benzyl-N-(gemischtes C₈-C₁₈-Alkyl)-N,N-bis-(2-hydroxyethyl)-ammoniumchlorid",–,–,–,–,–,–,–,–,–,–,–,–,–,–,keine okularen Läsionen
